Measurements as given in patent EP2253617A1, “Halogenated compounds as pesticides” (Bayer CropScience AG, priority 2009, dated 2010).

Legend:
Tetranychus urticae = type: in vivo; conditions: foliar, 500 g/ha, 144 h
From the text: Tetranychus-Test, OP-resistent (TETRUR Spritzbehandlung)
(§1) • Lösungsmittel: 78,0 GewichtsteileAceton 1,5 Gewichtsteile Dimethylformamid • Emulgator: 0,5 Gewichtsteile Alkylarylpolyglykolether
(§2) Zur Herstellung einer zweckmäßigen Wirkstoffzubereitung vermischt man 1 Gewichtsteil Wirkstoff mit den angegebenen Mengen Lösungsmittel und Emulgator und verdünnt das Konzentrat mit emulgatorhaltigem Wasser auf die gewünschte Konzentration.
Bohnenblattscheiben (Phaseolus vulgaris), die von allen Stadien der Gemeinen Spinnmilbe (Tetranychus urticae) befallen sind, werden mit einer Wirkstoffzubereitung der gewünschten Konzentration gespritzt.
Nach 6 Tagen wird die Wirkung in % bestimmt. Dabei bedeutet 100 %, dass alle Spinnmilben abgetötet wurden; 0 % bedeutet, dass keine Spinnmilben abgetötet wurden.

Phaedon cochleariae = experiment: Phaedon test (PHAECO spray treatment); type: in vivo; conditions: 500 g/ha, sprayed Chinese cabbage leaf discs, larvae, after 7 days; 100 % = all beetle larvae killed
From the text: Phaedon-Test (PHAECO Spritzbehandlung)
as §1, §2
Chinakohlblattscheiben (Brassica pekinensis) werden mit einer Wirkstoffzubereitung der gewünschten Konzentration gespritzt und nach dem Abtrocknen mit Larven des Meerrettichblattkäfers (Phaedon cochleariae) besetzt.
Nach 7 Tagen wird die Wirkung in % bestimmt. Dabei bedeutet 100 %, dass alle Käferlarven abgetötet wurden; 0 % bedeutet, dass keine Käferlarven abgetötet wurden.

Lucilia cuprina Larven = experiment: Lucilia cuprina test (LUCICU); type: in vivo; conditions: 100 ppm, treated horse meat, larvae, after 2 days; 100 % = all larvae killed
Experimental: Lucilia cuprina-Test (LUCICU)
(§3) Lösungsmittel: Dimethylsulfoxid
Zur Herstellung einer zweckmäßigen Wirkstoffzubereitung vermischt man 10 mg Wirkstoff mit 0,5 ml Dimethylsulfoxid und verdünnt das Konzentrat mit Wasser auf die gewünschte Konzentration.Gefäße, die Pferdefleisch enthalten, das mit der Wirkstoffzubereitung der gewünschten Konzentration behandelt wurde, werden mit Lucilia cuprina Larven besetzt.
Nach 2 Tagen wird die Abtötung in % bestimmt. Dabei bedeutet 100 %, dass alle Larven abgetötet wurden; 0 % bedeutet, dass keine Larven abgetötet wurden.

Ctenocephalides felis = Ctenocephalides felis oral test (CTECFE); type: in vivo; conditions: 100 ppm in citrated cattle blood, oral uptake, adult fleas, after 2 days; 100 % = all fleas killed
Experimental: Ctenocephalides felis oral (CTECFE)
Lösungsmittel: 1 Gewichtsteil Dimethylsulfoxid
Zwecks Herstellung einer zweckmäßigen Wirkstoffzubereitung vermischt man 10 mg Wirkstoff mit 0,5 ml Dimethylsulfoxid. Ein Teil des Konzentrats wird mit citriertem Rinderblut verdünnt und die gewünschte Konzentration hergestellt.
20 nüchterne adulte Flöhe (Ctenocephalides felis) werden in eine Kammer eingesetzt, die oben und unten mit Gaze verschlossen ist. Auf die Kammer wird ein Metallzylinder gestellt, dessen Unterseite mit Parafilm verschlossen ist. Der Zylinder enthält die Blut-Wirkstoffzubereitung, die von den Flöhen durch die Parafilmmembran aufgenommen werden kann. Nach 2 Tagen wird die Abtötung in % bestimmt. Dabei bedeutet 100 %, dass alle Flöhe abgetötet wurden; 0 % bedeutet, dass kein Floh abgetötet wurde.

Spodoptera frugiperda = Spodoptera frugiperda test (SPODFR spray treatment); type: in vivo; conditions: 500 g/ha, sprayed maize leaf discs, caterpillars, after 7 days; 100 % = all caterpillars killed
From the text: Spodoptera frugiperda-Test (SPODFR Spritzbehandlung)
as §1, §2
Maisblattscheiben (Zea mays) werden mit einer Wirkstoffzubereitung der gewünschten Konzentration gespritzt und nach dem Abtrocknen mit Raupen des Heerwurms (Spodoptera frugiperda) besetzt.Nach 7 Tagen wird die Wirkung in % bestimmt. Dabei bedeutet 100 %, dass alle Raupen abgetötet wurden; 0 % bedeutet, dass keine Raupe abgetötet wurde.

Boophilus microplus = Boophilus microplus test (BOOPMI injection); type: in vivo; conditions: 20 µg / Tier, injection into the abdomen, after 7 days; 100 % = no tick laid fertile eggs
Experimental: Boophilus microplus -Test (BOOPMI Injektion)
as §3
Zur Herstellung einer zweckmäßigen Wirkstoffzubereitung vermischt man 10 mg Wirkstoff mit 0,5 ml Lösungsmittel und verdünnt das Konzentrat mit Wasser auf die gewünschte Konzentration. Die Wirkstofflösung wird in das Abdomen (Boophilus microplus) injiziert, die Tiere werden in Schalen überführt und in einem klimatisierten Raum aufbewahrt. Die Wirkungskontrolle erfolgt auf Ablage fertiler Eier. Nach 7 Tagen wird die Wirkung in % bestimmt. Dabei bedeutet 100%, dass keine Zecke fertile Eier gelegt hat.

Musca domestica Adulten = experiment: Musca domestica test (MUSCDO); type: in vivo; conditions: 100 ppm, treated sponge, adults, after 2 days; 100 % = all flies killed
Experimental: Musca domestica-Test (MUSCDO)
as §3
Zur Herstellung einer zweckmäßigen Wirkstoffzubereitung vermischt man 10 mg Wirkstoff mit 0,5 ml Dimethylsulfoxid und verdünnt das Konzentrat mit Wasser auf die gewünschte Konzentration. Gefäße, die einen Schwamm enthalten, der mit der Wirkstoffzubereitung der gewünschten Konzentration behandelt wurde, werden mit Musca domestica Adulten besetzt.
Nach 2 Tagen wird die Abtötung in % bestimmt. Dabei bedeutet 100 %, dass alle Fliegen abgetötet wurden; 0 % bedeutet, dass keine Fliegen abgetötet wurden.

Structure (SMILES)	Wirkung (Tetranychus urticae) [%]	chromatographic logP (physchem)	Wirkung (Phaedon cochleariae) [%]	Wirkung (Abtötung in %) (Lucilia cuprina Larven) [%]	Wirkung (Abtötung in %) (Ctenocephalides felis) [%]	Wirkung (Spodoptera frugiperda) [%]	Wirkung (Boophilus microplus) [%]	Wirkung (Abtötung in %) (Musca domestica Adulten) [%]
Cn1nc(C(F)(F)C(F)(F)F)c(C(F)(F)F)c1C(=O)Nc1ccc(Cl)c(C(=O)Nc2ccccn2)c1 [Ia-8, N-[4-Chlor-3-(pyrid-2-yl-carbamoyl)phenyl]-1-methyl-3-(pentafluorethyl)-4-(trifluormethyl)-1H-pyrazol-5-carboxamid]	80	3.53	100	100	100	100	100	–
Cn1nc(C(F)(F)C(F)(F)F)c(C(F)(F)F)c1C(=O)Nc1ccc(Cl)c(C(=O)Nc2ccc(Cl)nc2)c1 [Ia-11]	90	3.68	100	100	80	100	100	–
Cn1nc(C(F)(F)C(F)(F)F)c(C(F)(F)F)c1C(=O)Nc1ccc(Cl)c(C(=O)Nc2ccccc2)c1 [Ia-15]	90	3.84	100	100	100	100	100	–
COc1cccc(NC(=O)c2cc(NC(=O)c3c(C(F)(F)F)c(C(F)(F)C(F)(F)F)nn3C)ccc2Cl)c1 [Ia-16]	80	3.84	100	90	95	100	100	–
Cn1nc(C(F)(F)C(F)(F)F)c(C(F)(F)F)c1C(=O)Nc1ccc(Cl)c(C(=O)Nc2ccc(F)cc2)c1 [Ia-17]	80	3.89	100	100	90	100	100	100
Cn1nc(C(F)(F)C(F)(F)F)c(C(F)(F)F)c1C(=O)Nc1ccc(Cl)c(C(=O)Nc2ccccc2F)c1 [Ia-18, N-{4-Chlor-3-[(2-fluorphenyl)carbamoyl]phenyl}-1-methyl-3-(pentafluorethyl)-4-(trifluormethyl)-1H-pyrazol-5-carboxamid]	100	3.94	100	–	100	100	100	–
Cn1nc(C(F)(F)C(F)(F)F)c(C(F)(F)F)c1C(=O)Nc1ccc(Cl)c(C(=O)Nc2ccc(F)cc2F)c1 [Ia-22]	100	4.05	100	100	100	100	100	90
Cn1nc(C(F)(F)C(F)(F)F)c(C(F)(F)F)c1C(=O)Nc1ccc(Cl)c(C(=O)Nc2cc(Cl)ccn2)c1 [Ia-26]	90	4.17	100	100	80	100	100	80
Cn1nc(C(F)(F)C(F)(F)F)c(C(F)(F)F)c1C(=O)Nc1ccc(Cl)c(C(=O)Nc2ccc(Cl)cc2)c1 [Ia-28]	80	4.23	100	100	80	100	100	–
Cc1cc(NC(=O)c2cc(NC(=O)c3c(C(F)(F)F)c(C(F)(F)C(F)(F)F)nn3C)ccc2Cl)ccc1F [Ia-29]	–	4.23	100	100	90	100	100	–
Cn1nc(C(F)(F)C(F)(F)F)c(C(F)(F)F)c1C(=O)Nc1ccc(Cl)c(C(=O)Nc2cccc(Cl)c2)c1 [Ia-30]	90	4.28	100	100	90	100	100	–
Cn1nc(C(F)(F)C(F)(F)F)c(C(F)(F)F)c1C(=O)Nc1ccc(Cl)c(C(=O)Nc2ccc(C(F)(F)F)cc2)c1 [Ia-36]	–	4.4	100	90	–	100	100	–
